Measurements taken from US6355620B1, “C-2 modified erythromycin derivatives” (Abbott Laboratories, priority 1999, dated 2002).

Columns and labels:
Test in all cases: In vitro antibacterial activity, agar dilution MIC
Assay type in all cases: cell-based
Candida albicans CCH 442 = settings: code TT, BHI agar, 35-37° C., 20 to 24 hours, unit assumed
Protocol: (§1) Representative compounds of the present invention were assayed in vitro for antibacterial activity as follows: Twelve petri dishes containing successive aqueous dilutions of the test compound mixed with 10 mL of sterilized Brain Heart Infusion (BHI) agar (Difco 0418-01-5) were prepared. Each plate was inoculated with 1:100 (or 1:10 for slow-growing strains, such as Micrococcus and Streptococcus) dilutions of up to 32 different microorganisms, using a Steers replicator block. The inoculated plates were incubated at 35-37° C. for 20 to 24 hours. In addition, a control plate, using BHI agar containing no test compound, was prepared and incubated at the beginning and end of each test.
(§2) An additional plate containing a compound having known susceptibility patterns for the organisms being tested and belonging to the same antibiotic class as the test compound was also prepared and incubated as a further control, as well as to provide test-to-test comparability.
(§3) After incubation, each plate was visually inspected. The minimum inhibitory concentration (MIC) was defined as the lowest concentration of drug yielding no growth, a slight haze, or sparsely isolated colonies on the inoculum spot as compared to the growth control.

[1] = tested on: Enterococcusfaecium ATCC X043; settings: code II, BHI agar, 35-37° C., 20 to 24 hours, unit assumed
Protocol: as §1, §2, §3

Escherichiacoli DC-2 = settings: code SS, BHI agar, 35-37° C., 20 to 24 hours, unit assumed
Protocol: as §1, §2, §3

Escherichiacoli JUHL = settings: code QQ, BHI agar, 35-37° C., 20 to 24 hours, unit assumed
Protocol: as §1, §2, §3

Escherichiacoli SS = settings: code RR, BHI agar, 35-37° C., 20 to 24 hours, unit assumed
Protocol: as §1, §2, §3

[2] = tested on: Haemophilislnfluenzae DILL AMP R; settings: code WW, BHI agar, 35-37° C., 20 to 24 hours, unit assumed
Protocol: as §1, §2, §3

[3] = tested on: Micrococcusluteus ATCC 4698; settings: code PP, BHI agar, 35-37° C., 20 to 24 hours, unit assumed
Protocol: as §1, §2, §3

[4] = tested on: Micrococcusluteus ATCC 9341; settings: code OO, BHI agar, 35-37° C., 20 to 24 hours, unit assumed
Protocol: as §1, §2, §3

[5] = tested on: Mycobacterium smegmatis ATCC 114; settings: code UU, BHI agar, 35-37° C., 20 to 24 hours, unit assumed
Protocol: as §1, §2, §3

[6] = tested on: Nocardia Asteroides ATCC 99700; settings: code VV, BHI agar, 35-37° C., 20 to 24 hours, unit assumed
Protocol: as §1, §2, §3

[7] = tested on: Staphylococcus aureus 1775; settings: code GG, BHI agar, 35-37° C., 20 to 24 hours, unit assumed
Protocol: as §1, §2, §3

[8] = tested on: Staphylococcus aureus A-5177; settings: code BB, BHI agar, 35-37° C., 20 to 24 hours, unit assumed
Protocol: as §1, §2, §3

[9] = tested on: Staphylococcus aureus A-5278; settings: code CC, BHI agar, 35-37° C., 20 to 24 hours, unit assumed
Protocol: as §1, §2, §3

[10] = tested on: Staphylococcus aureus ATCC 6538P; settings: code AA, BHI agar, 35-37° C., 20 to 24 hours, unit assumed
Protocol: as §1, §2, §3

[11] = tested on: Staphylococcus aureus CMX 553; settings: code FF, BHI agar, 35-37° C., 20 to 24 hours, unit assumed
Protocol: as §1, §2, §3

[12] = tested on: Staphylococcus aureus CMX 642A; settings: code DD, BHI agar, 35-37° C., 20 to 24 hours, unit assumed
Protocol: as §1, §2, §3

[13] = tested on: Staphylococcus aureus NCTC 10649M; settings: code EE, BHI agar, 35-37° C., 20 to 24 hours, unit assumed
Protocol: as §1, §2, §3

[14] = tested on: Staphylococcus epidermidis 3519; settings: code HH, BHI agar, 35-37° C., 20 to 24 hours, unit assumed
Protocol: as §1, §2, §3

[15] = tested on: Streptococcus Pneumonia 5649; settings: code ZZA, BHI agar, 35-37° C., 20 to 24 hours, unit assumed
Protocol: as §1, §2, §3

[16] = tested on: Streptococcus Pneumonia 5979; settings: code ZZ, BHI agar, 35-37° C., 20 to 24 hours, unit assumed
Protocol: as §1, §2, §3

[17] = tested on: Streptococcus Pneumonia ATCC 6303; settings: code XX, BHI agar, 35-37° C., 20 to 24 hours, unit assumed
Protocol: as §1, §2, §3

[18] = tested on: Streptococcus Pneumonia GYR 1171; settings: code YY, BHI agar, 35-37° C., 20 to 24 hours, unit assumed
Protocol: as §1, §2, §3

[19] = tested on: Streptococcus agalactiae CMX 508; settings: code KK, BHI agar, 35-37° C., 20 to 24 hours, unit assumed
Protocol: as §1, §2, §3

[20] = tested on: Streptococcus bovis A-5169; settings: code JJ, BHI agar, 35-37° C., 20 to 24 hours, unit assumed
Protocol: as §1, §2, §3

[21] = tested on: Streptococcus pyogenes 930; settings: code MM, BHI agar, 35-37° C., 20 to 24 hours, unit assumed
Protocol: as §1, §2, §3

[22] = tested on: Streptococcus pyogenes EES61; settings: code LL, BHI agar, 35-37° C., 20 to 24 hours, unit assumed
Protocol: as §1, §2, §3

[23] = tested on: Streptococcus pyogenes PIU 2548; settings: code NN, BHI agar, 35-37° C., 20 to 24 hours, unit assumed
Protocol: as §1, §2, §3

Compound C=CCC1(C)C(=O)OC(CC)C2(C)OC(=O)NC2C(C)C(=O)C(C)CC(C)(OCC=Cc2cnc3ccccc3c2)C(OC2OC(C)CC(N(C)C)C2O)C(C)C1=O (stereo not drawn) [Example 4, Compound of formula (II): R^a is —CH2CH═CH-(3-quinolinyl), R^b is H, Y and Z together are O, T is —NH—, R is —CH2CH═CH2] has an Antibacterial Activity (MIC) (Candida albicans CCH 442) greater than 100 µg/mL, an Antibacterial Activity (MIC) [1] of 0.2 µg/mL and an Antibacterial Activity (MIC) (Escherichiacoli DC-2) greater than 100 µg/mL. For the same compound, the Antibacterial Activity (MIC) (Escherichiacoli JUHL) was greater than 100 µg/mL, the Antibacterial Activity (MIC) (Escherichiacoli SS) was 3.1 µg/mL and the Antibacterial Activity (MIC) [2] was 16 µg/mL. For the same compound, the Antibacterial Activity (MIC) [3] was 0.78 µg/mL, the Antibacterial Activity (MIC) [4] was 0.1 µg/mL and the Antibacterial Activity (MIC) [5] was 3.1 µg/mL. It also gave an Antibacterial Activity (MIC) [6] of 0.1 µg/mL, an Antibacterial Activity (MIC) [7] greater than 100 µg/mL and an Antibacterial Activity (MIC) [8] of 0.39 µg/mL. It also gave an Antibacterial Activity (MIC) [9] greater than 100 µg/mL, an Antibacterial Activity (MIC) [10] of 0.78 µg/mL and an Antibacterial Activity (MIC) [11] of 0.39 µg/mL. The Antibacterial Activity (MIC) [12] was 0.78 µg/mL, the Antibacterial Activity (MIC) [13] was 0.78 µg/mL and the Antibacterial Activity (MIC) [14] was 0.39 µg/mL. The Antibacterial Activity (MIC) [15] was 2 µg/mL, the Antibacterial Activity (MIC) [16] was 64 µg/mL and the Antibacterial Activity (MIC) [17] was 0.25 µg/mL. The Antibacterial Activity (MIC) [18] was 0.25 µg/mL, the Antibacterial Activity (MIC) [19] was 0.2 µg/mL and the Antibacterial Activity (MIC) [20] was 0.05 µg/mL. The Antibacterial Activity (MIC) [21] was 12.5 µg/mL, the Antibacterial Activity (MIC) [22] was 0.1 µg/mL and the Antibacterial Activity (MIC) [23] was 0.78 µg/mL.
With CCC1OC(=O)C(C)(O)C(=O)C(C)C(OC2OC(C)CC(N(C)C)C2O)C(C)(OCC=Cc2cnc3ccccc3c2)CC(C)C(=O)C(C)C2NC(=O)OC12C (stereo not drawn) [Example 8, Compound of formula (II): R^a is —CH2CH═CH-(3-quinolinyl), R^b is H, Y and Z together are O, T is —NH—, R is —OH] the Antibacterial Activity (MIC) (Candida albicans CCH 442) was greater than 100 µg/mL, the Antibacterial Activity (MIC) [1] was 0.2 µg/mL and the Antibacterial Activity (MIC) (Escherichiacoli DC-2) was greater than 100 µg/mL. For the same compound, the Antibacterial Activity (MIC) (Escherichiacoli JUHL) was greater than 100 µg/mL, the Antibacterial Activity (MIC) (Escherichiacoli SS) was 0.2 µg/mL and the Antibacterial Activity (MIC) [2] was 16 µg/mL. For the same compound, the Antibacterial Activity (MIC) [3] was 0.2 µg/mL, the Antibacterial Activity (MIC) [4] was 0.02 µg/mL and the Antibacterial Activity (MIC) [5] was 3.1 µg/mL. The Antibacterial Activity (MIC) [6] was 0.39 µg/mL, the Antibacterial Activity (MIC) [7] was greater than 100 µg/mL and the Antibacterial Activity (MIC) [8] was 0.39 µg/mL. It also gave an Antibacterial Activity (MIC) [9] greater than 100 µg/mL, an Antibacterial Activity (MIC) [10] of 0.39 µg/mL and an Antibacterial Activity (MIC) [11] of 0.78 µg/mL. For the same compound, the Antibacterial Activity (MIC) [12] was 0.39 µg/mL, the Antibacterial Activity (MIC) [13] was 0.78 µg/mL and the Antibacterial Activity (MIC) [14] was 0.39 µg/mL. For the same compound, the Antibacterial Activity (MIC) [15] was 0.5 µg/mL, the Antibacterial Activity (MIC) [16] was 128 µg/mL and the Antibacterial Activity (MIC) [17] was 0.03 µg/mL. The Antibacterial Activity (MIC) [18] was 0.03 µg/mL, the Antibacterial Activity (MIC) [19] was 0.01 µg/mL and the Antibacterial Activity (MIC) [20] was 0.02 µg/mL. It also gave an Antibacterial Activity (MIC) [21] of 50 µg/mL, an Antibacterial Activity (MIC) [22] of 0.02 µg/mL and an Antibacterial Activity (MIC) [23] of 0.39 µg/mL.
In the case of C#CCOC1(C)CC(C)C(=O)C(C)C2NC(=O)OC2(C)C(CC)OC(=O)C(C)(CC=Cc2ccccc2)C(=O)C(C)C1OC1OC(C)CC(N(C)C)C1O (stereo not drawn) [Example 9, Compound of formula (II): R^a is —CH2C═CH, R^b is H, Y and Z together are O, T is —NH—, R is —CH2CH═CH-(phenyl)], the Antibacterial Activity (MIC) (Candida albicans CCH 442) is reported as greater than 100 µg/mL, the Antibacterial Activity (MIC) [1] is reported as 3.1 µg/mL and the Antibacterial Activity (MIC) (Escherichiacoli DC-2) is reported as greater than 100 µg/mL. For the same compound, the Antibacterial Activity (MIC) (Escherichiacoli JUHL) was greater than 100 µg/mL, the Antibacterial Activity (MIC) (Escherichiacoli SS) was 6.2 µg/mL and the Antibacterial Activity (MIC) [2] was greater than 64 µg/mL. It also gave an Antibacterial Activity (MIC) [3] of 3.1 µg/mL, an Antibacterial Activity (MIC) [4] of 1.56 µg/mL and an Antibacterial Activity (MIC) [5] of 12.5 µg/mL. The Antibacterial Activity (MIC) [6] was 1.56 µg/mL, the Antibacterial Activity (MIC) [7] was greater than 100 µg/mL and the Antibacterial Activity (MIC) [8] was 3.1 µg/mL. For the same compound, the Antibacterial Activity (MIC) [9] was greater than 100 µg/mL, the Antibacterial Activity (MIC) [10] was 3.1 µg/mL and the Antibacterial Activity (MIC) [11] was 3.1 µg/mL. It also gave an Antibacterial Activity (MIC) [12] of 3.1 µg/mL, an Antibacterial Activity (MIC) [13] of 12.5 µg/mL and an Antibacterial Activity (MIC) [14] of 6.2 µg/mL. For the same compound, the Antibacterial Activity (MIC) [15] was 8 µg/mL, the Antibacterial Activity (MIC) [16] was 64 µg/mL and the Antibacterial Activity (MIC) [17] was 1 µg/mL. It also gave an Antibacterial Activity (MIC) [18] of 1 µg/mL, an Antibacterial Activity (MIC) [19] of 1.56 µg/mL and an Antibacterial Activity (MIC) [20] of 0.78 µg/mL. For the same compound, the Antibacterial Activity (MIC) [21] was 50 µg/mL, the Antibacterial Activity (MIC) [22] was 1.56 µg/mL and the Antibacterial Activity (MIC) [23] was 3.1 µg/mL.
